Patent US20040024024A1, “Aromatic sulfone hydroxamates and their use as protease inhibitors” (priority 2001, published 2004)

Legend:
Experiment in all cases: In vitro MMP inhibition, IC50 determination (fluorogenic substrate I)
Assay type in all cases: biochemical
Human recombinant MMP-1 = target: T1, Human recombinant MMP-1 (Homo sapiens, UniProt P03956); settings: value outside parentheses (Ki in parenthesis)
T1 construct: made in house; host or cells: MMP-1-transfected HT-1080 cells (spent media)
T1 sequence (P03956 100-469): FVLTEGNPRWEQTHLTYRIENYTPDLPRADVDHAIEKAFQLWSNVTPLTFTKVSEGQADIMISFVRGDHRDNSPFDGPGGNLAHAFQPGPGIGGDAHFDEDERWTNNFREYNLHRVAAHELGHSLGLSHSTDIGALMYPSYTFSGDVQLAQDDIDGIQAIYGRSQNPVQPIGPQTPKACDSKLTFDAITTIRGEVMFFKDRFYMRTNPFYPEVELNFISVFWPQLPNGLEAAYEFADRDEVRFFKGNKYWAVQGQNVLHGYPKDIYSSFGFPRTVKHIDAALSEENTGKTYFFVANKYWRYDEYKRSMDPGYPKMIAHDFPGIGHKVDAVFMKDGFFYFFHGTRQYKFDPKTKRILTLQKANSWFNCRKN
Method: Several hydroxamates and salts thereof were analyzed in in vitro assays to determine their ability to inhibit the MMP cleavage of peptide substrates. Inhibition (Ki) and IC50 constants were calculated from the assayed hydroxamate-MMP interactions.
Human recombinant MMP-1, MMP-2, MMP-9, MMP-13, and MMP-14 were used in this assay. All enzymes were prepared in Assignee's laboratories following usual laboratory procedures. Protocols for the preparation and use of these enzymes are available in the scientific literature. See, e.g., Enzyme Nomenclature (Academic Press, San Diego, Calif., 1992) (and the citations therein). See also, Frije et al., J. Biol. Chem., 26(24), 16766-73 (1994).
The MMP-1 proenzyme was purified from the spent media of MMP-1-transfected HT-1080 cells provided by Dr. Harold Welgus of Washington University (St. Louis, Mo.). The protein was purified on a zinc chelating column.
All MMPs were activated using 4-aminophenylmercuric acetate (“APMA”, Sigma Chemical, St. Louis, Mo.) or trypsin. MMP-9 also was activated using human recombinant MMP-3 (purified in Assignee's laboratory following standard cloning and purification techniques).
Two fluorogenic, methoxycoumarin-containing polypeptide substrates were used in the MMP inhibition assays:
MCA-ProLeuGlyLeuDpaAlaArgNH2 (I)
Here, “Dpa” is 3-(2,4-dinitrophenyl)-L-2,3-diaminopropionyl group, and “MCA” is 7-methoxycoumarin-4-yl acetyl. Substrate (I) was purchased from Baychem (Redwood City, Calif.), and substrate II was prepared Assignee's laboratory. Substrate I was used in the IC50 determination assays, while substrate II was used in the Ki determination assays. In the absence of MMP inhibitory activity, either substrate is cleaved at the Gly-Leu peptide bond. This cleavage separates the highly fluorogenic peptide from the 2,4-dinitrophenyl quencher, thus resulting in increase of fluorescent intensity.
The stock solutions of the assayed hydroxamates (or salts thereof) were prepared in 1% dimethyl sulfoxide (DMSO). These stock solutions were diluted in Buffer A (100 mM Tris-HCl, 100 mM NaCl, 10 mM CaCl2, 0.05% polyoxyethylene 23 lauryl ether, pH 7.5) to obtain solutions with different hydroxamate concentrations, i.e., assay solutions with different concentrations of the assayed MMP inhibitory compound. The experiment controls contained the same amount of Buffer A/DMSO as the assayed sample, but contained no hydroxamate (or salt thereof).
The assays from which the IC50 determinations were made were performed as follows. The MMPs were activated with either trypsin or APMA (4-aminophenylmercuric acetate, Sigma Chemical, St. Louis, Mo.). The assayed hydroxamate samples were, incubated in Microfluorrm White Plates (Dynatech, Chantilly, VA) and analyzed on a Perkin Elmer L550 plate reader (Norwalk, Conn.). The excitation wavelength was 328 nm, and the emission wavelength—415 nm. All samples (assayed hydroxamates and controls) were incubated in separate plates at room temperature in the presence of 4 μM of MMP substrate (I). As stated in the previous paragraph, samples containing varying concentrations of the same assayed hydroxamate were prepared. Inhibition was measured as a reduction in fluorescent intensity as a function of MMP inhibitor concentration.

Human recombinant MMP-2 = target: T2, Human recombinant MMP-2 (Homo sapiens, UniProt P08253)
T2 construct: made in house; host or cells: MMP-2-transfected p2AHT2 cells
T2 sequence (P08253 110-660): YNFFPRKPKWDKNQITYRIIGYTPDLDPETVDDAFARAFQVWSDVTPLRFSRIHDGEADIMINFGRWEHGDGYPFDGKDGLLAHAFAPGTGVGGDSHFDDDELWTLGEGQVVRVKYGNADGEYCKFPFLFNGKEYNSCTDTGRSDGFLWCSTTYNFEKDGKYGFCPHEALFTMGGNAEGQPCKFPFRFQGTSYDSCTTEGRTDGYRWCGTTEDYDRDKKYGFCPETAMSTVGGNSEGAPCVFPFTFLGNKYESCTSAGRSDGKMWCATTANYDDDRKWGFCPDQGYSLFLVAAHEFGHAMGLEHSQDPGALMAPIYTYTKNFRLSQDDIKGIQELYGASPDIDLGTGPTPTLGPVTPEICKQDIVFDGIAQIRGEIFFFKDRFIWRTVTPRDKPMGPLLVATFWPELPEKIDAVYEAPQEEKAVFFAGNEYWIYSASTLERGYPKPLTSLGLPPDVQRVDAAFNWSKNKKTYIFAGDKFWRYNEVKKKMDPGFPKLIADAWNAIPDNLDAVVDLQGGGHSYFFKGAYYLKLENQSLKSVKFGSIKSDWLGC
Method in brief: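 APMA- or trypsin-activated recombinant MMP-2 was incubated at room temperature with serial inhibitor dilutions in Tris buffer pH 7.5 (100 mM NaCl, 10 mM CaCl2, 0.05% Brij), with DMSO from 1% stocks, and 4 μM substrate I. Cleavage was read by fluorescence at 328/415 nm; IC50 was taken from the loss of fluorescence versus inhibitor concentration.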

Human recombinant MMP-13 = target: T3, Human recombinant MMP-13 (Homo sapiens, UniProt P45452)
T3 construct: made in house; host or cells: baculovirus / insect cells
Method in brief: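 Fluorescence at 415 nm (excitation 328 nm) reports Gly-Leu cleavage of 4 μM quenched methoxycoumarin peptide substrate I. Human recombinant MMP-13, activated by trypsin or APMA, was incubated at room temperature with varied inhibitor concentrations in pH 7.5 Tris/NaCl/CaCl2 buffer; IC50 derived from reduced fluorescence.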

[1] = value outside parentheses (Ki in parenthesis)

| SMILES | IC50 (Human recombinant MMP-1) [µM] | IC50 (Human recombinant MMP-2; [1]) [µM] | IC50 (Human recombinant MMP-13; [1]) [µM] | IC50 (Human recombinant MMP-2; value outside parentheses) [µM] | IC50 (Human recombinant MMP-13; value outside parentheses) [µM] |
| --- | --- | --- | --- | --- | --- |
| CC(C)(COc1ccc(S(=O)(=O)C2(C(=O)NO)CCOCC2)cc1)CSc1ccc(OC(F)(F)F)cc1 [Example 435] | > 10 | > 10 | 0.5 | – | – |
| COc1cccc(SCC(C)(C)COc2ccc(S(=O)(=O)C3(C(=O)NO)CCOCC3)cc2)c1 [Example 436] | > 10 | 1.5 | 0.1 | – | – |
| O=C(NO)C1(S(=O)(=O)c2ccc(OCCCOCc3cc(C(F)(F)F)cc(C(F)(F)F)c3)cc2)CCOCC1 [Example 454] | > 10 | 0.165 | 0.027 | – | – |
| CN(CCCC(=O)O)c1ccc(S(=O)(=O)C2(C(=O)NO)CCOCC2)cc1 [Example 457] | > 10 | > 10 | > 10 | – | – |
| COC(=O)CCCN(C)c1ccc(S(=O)(=O)C2(C(=O)NO)CCOCC2)cc1 [Example 458] | > 10 | 3.5 | 1.4 | – | – |
| CCCCCN(C)c1ccc(S(=O)(=O)C2(C(=O)NO)CCOCC2)cc1 [Example 459] | > 10 | 0.7 | 0.67 | – | – |
| CC(C)OCCCNc1ccc(S(=O)(=O)C2(C(=O)NO)CCOCC2)cc1 [Example 461] | > 10 | 2.2 | 0.59 | – | – |
| CC(C)(CCc1ccccc1)Oc1ccc(S(=O)(=O)C2(C(=O)NO)CCOCC2)cc1 [Example 468] | > 10 | 2.5 | 1.5 | – | – |
| CC(CCOc1ccc(S(=O)(=O)C2(C(=O)NO)CCOCC2)cc1)CC(C)(C)C (centres unmarked) [Example 469] | > 10 | 0.145 | 0.06 | – | – |
| CC(C)=CCCC(C)CCOc1ccc(S(=O)(=O)C2(C(=O)NO)CCOCC2)cc1 (centres unmarked) [Example 470] | > 10 | 0.007 | 0.003 | – | – |
| CC(C)=CC1C(COc2ccc(S(=O)(=O)C3(C(=O)NO)CCOCC3)cc2)C1(C)C (centres unmarked) [Example 471] | > 10 | 0.27 | 0.12 | – | – |
| COC(C)(C)CCCC(C)CCOc1ccc(S(=O)(=O)C2(C(=O)NO)CCOCC2)cc1 (centres unmarked) [Example 474] | > 10 | 0.012 | 0.003 | – | – |
| CC1CCCCC1COc1ccc(S(=O)(=O)C2(C(=O)NO)CCOCC2)cc1 (centres unmarked) [Example 477] | 1.3 | 0.0015 | 0.002 | – | – |
| Cn1c(C(=O)NCCOc2ccc(S(=O)(=O)C3(C(=O)NO)CCOCC3)cc2)cc2ccccc21 [Example 592] | – | – | – | 0.336 | 0.0387 |
| O=C(NCCSc1ccc(S(=O)(=O)C2(C(=O)NO)CCOCC2)cc1)c1cc2ccccc2[nH]1 [Example 593] | – | – | – | 0.0065 | 0.0156 |
| O=C(NO)C1(S(=O)(=O)c2ccc(OCCc3cccc(N4CCCCC4)c3)cc2)CCOCC1 [Example 594] | – | – | – | 0.14 | 0.0038 |
| O=C(NCCSc1ccc(S(=O)(=O)C2(C(=O)NO)CCOCC2)cc1)c1cc2ccccc2s1 [Example 597] | – | – | – | 0.471 | 0.0121 |
| N=C(NCCOc1ccc(S(=O)(=O)C2(C(=O)NO)CCOCC2)cc1)c1ccccc1 [Example 600] | – | – | – | 0.206 | 0.214 |

| SMILES | IC50 (Human recombinant MMP-1) [µM] | IC50 (Human recombinant MMP-2; [1]) [µM] | IC50 (Human recombinant MMP-13; [1]) [µM] | IC50 (Human recombinant MMP-2; value outside parentheses) [µM] | IC50 (Human recombinant MMP-13; value outside parentheses) [µM] |
| --- | --- | --- | --- | --- | --- |
| COc1cccc(CC(=O)NCCOc2ccc(S(=O)(=O)C3(C(=O)NO)CCOCC3)cc2)c1 [Example 602] | – | – | – | 0.0137 | 0.0036 |
| COc1ccc(S(=O)(=O)NCCOc2ccc(S(=O)(=O)C3(C(=O)NO)CCOCC3)cc2)cc1 [Example 603] | – | – | – | 0.034 | 0.0024 |
| O=C(NCCOc1ccc(S(=O)(=O)C2(C(=O)NO)CCOCC2)cc1)c1ccc(-c2ccccc2)cc1 [Example 604] | – | – | – | 0.0366 | 0.0033 |
| O=C(NCCSc1ccc(S(=O)(=O)C2(C(=O)NO)CCOCC2)cc1)c1ccc(-c2ccc(O)cc2)cc1 [Example 605] | – | – | – | 0.044 | 0.0038 |
| O=C(NCCOc1ccc(S(=O)(=O)C2(C(=O)NO)CCOCC2)cc1)c1ccc(-c2cccc(C(F)(F)F)c2)o1 [Example 610] | – | – | – | 0.488 | 0.0041 |
| O=C(NCCOc1ccc(S(=O)(=O)C2(C(=O)NO)CCOCC2)cc1)c1ccc(-c2cc(C(F)(F)F)ccc2Cl)o1 [Example 611] | – | – | – | 0.733 | 0.0136 |
| CC(C)CCCc1cccc(CCCOc2ccc(S(=O)(=O)C3(C(=O)NO)CCOCC3)cc2)c1 [Example 612] | – | – | – | 1.23 | 0.0161 |
| CN(C)c1cccc(CCCOc2ccc(S(=O)(=O)C3(C(=O)NO)CCN(C4CC4)CC3)cc2)c1 [Example 613] | – | – | – | 0.0343 | 0.0066 |
| O=C(Cc1ccc(-c2ccc(Cl)cc2)s1)NCCOc1ccc(S(=O)(=O)C2(C(=O)NO)CCOCC2)cc1 [Example 618] | – | – | – | 0.822 | 0.0275 |
| O=C(NCCOc1ccc(S(=O)(=O)C2(C(=O)NO)CCOCC2)cc1)c1cc2ccccc2s1 [Example 619] | – | – | – | 0.0662 | 0.0015 |
| O=C(NCCOc1ccc(S(=O)(=O)C2(C(=O)NO)CCOCC2)cc1)c1ccc(Br)s1 [Example 620] | – | – | – | 0.0162 | 0.0041 |
| O=C(NCCNc1ccc(S(=O)(=O)C2(C(=O)NO)CCOCC2)cc1)c1cc2ccccc2o1 [Example 621] | – | – | – | 0.368 | 0.0178 |
| CC(C)Cc1cccc(CCCOc2ccc(S(=O)(=O)C3(C(=O)NO)CCOCC3)cc2)c1 [Example 640] | – | – | – | 0.324 | 0.0104 |
| O=C(NO)C1(S(=O)(=O)c2ccc(OCCCc3cccc(N4CCNCC4)c3)cc2)CCN(C2CC2)CC1 [Example 641] | – | – | – | 0.135 | 0.005 |
| O=C(COc1ccc(S(=O)(=O)C2(C(=O)NO)CCOCC2)cc1)Nc1cccc(-c2ccccc2)c1 [Example 642] | – | – | – | 2.89 | 0.0369 |
| O=C(NCCCOc1ccc(S(=O)(=O)C2(C(=O)NO)CCN(C3CC3)CC2)cc1)C1C2CC3CC(C2)CC1C3 (centres unmarked) [Example 643] | – | – | – | 1.13 | 0.0114 |
| CN(CCCOc1ccc(S(=O)(=O)C2(C(=O)NO)CCN(C3CC3)CC2)cc1)C(=O)C1C2CC3CC(C2)CC1C3 (centres unmarked) [Example 644] | – | – | – | 2.63 | 0.0209 |
